16 compounds from patent publication US20240294551A1 (AMGEN INC., priority 2022, published 2024) can be followed below.

In experiment [1] the target is His-tagged KRAS G12D protein (Homo sapiens (Human), UniProt P01116, G12D). In words: KRAS G12D TR-FRET Assay. Conditions: read-out: KRAS G12D Binding IC50. In kind it is binding. How it is done: Compounds of interest were prepared in a dose-response titration in DMSO, and 80 nL were added via Labcyte Echo to each well of a 384-well plate (Perkin Elmer 6008280). The His-tagged KRAS G12D protein (Amgen) was diluted to 20 nM in Assay Buffer (20 mM HEPES, pH 7.4, 10 mM MgCl2, 50 mM NaCl, 0.1% BSA, 0.01% Tween-20, 10 μM GDP) and 2 μL was added to the appropriate wells of the 384-well plate. The plate was incubated for 30 minutes at room temperature. Biotinylated KRPep-2d substrate (Amgen) was diluted to 20 nM in Assay Buffer and 2 μL was added to all wells and incubated for 1 hour at room temperature. Detection Reagent (0.4 nM LANCE Eu-W1024 Anti-6×His (Perkin Elmer AD0401), 5 nM streptavidin-d2 (Cisbio 610SADLA)) was prepared in Assay Buffer, then 4 μL was added to the plate and incubated for 1 hour at room temperature. Plates were read using PerkinElmer EnVision (ex: 320 nm, em1: 665 nm, em2: 615 nm) and em1/em2 data was used to generate curve fits using a 4-parameter logistic model to calculate IC50 values.

In experiment [2] the target is GDP-bound KRAS protein (aa 1-169), containing both G12D and C118A amino acid substitutions (Homo sapiens (Human), UniProt P01116, C118A/G12D). Put plainly: KRAS G12D Coupled Nucleotide Exchange Assay. In kind it is biochemical. Conditions: read-out: KRAS G12D Coupled Exchange IC50. How it is done: KRAS G12D Coupled Nucleotide Exchange Assay
Following compound pre-incubation, purified SOS protein (aa 564-1049) and GTP (Roche 10106399001) were added to the assay wells and incubated for an additional 30 min. To determine the extent of inhibition of SOS-mediated nucleotide exchange, purified GST-tagged cRAF (aa 1-149), nickel chelate AlphaLISA acceptor beads (PerkinElmer AL108R), and AlphaScreen glutathione donor beads (PerkinElmer 6765302) were added to the assay wells and incubated for 10 minutes. The assay plates were then read on a PerkinElmer EnVision Multilabel Reader, using AlphaScreen® technology, and data were analyzed using a 4-parameter logistic model to calculate IC50 values.

Sequence of GDP-bound KRAS protein (aa 1-169), containing both G12D and C118A amino acid substitutions (P01116 other isoform, or with tags, fused parts or gaps G12D/C118A): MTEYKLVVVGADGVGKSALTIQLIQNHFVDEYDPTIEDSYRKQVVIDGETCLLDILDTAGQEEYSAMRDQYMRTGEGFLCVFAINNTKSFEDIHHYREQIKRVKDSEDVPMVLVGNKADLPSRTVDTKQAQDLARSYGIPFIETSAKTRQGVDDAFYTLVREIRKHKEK
Sequence of His-tagged KRAS G12D protein (P01116 other isoform, or with tags, fused parts or gaps G12D): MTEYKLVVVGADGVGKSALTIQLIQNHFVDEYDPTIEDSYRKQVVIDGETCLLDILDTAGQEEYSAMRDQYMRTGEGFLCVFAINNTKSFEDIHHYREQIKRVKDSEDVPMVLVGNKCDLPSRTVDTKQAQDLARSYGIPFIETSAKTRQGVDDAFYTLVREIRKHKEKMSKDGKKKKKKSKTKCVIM

Take `Cc1cc2[nH]ncc2c2c1CC/C=C/CO[C@@H]1CCCN(C1)c1nc(OC[C@@]34CCCN3C[C@H](F)C4)nc3c(F)c-2ncc13` [Example 134]: the half-maximal inhibitory concentration (IC50) in experiment [1] was found to be 56 nM; in experiment [2], 59 nM.

On to `Fc1c2ncc3c(nc(OC[C@@]45CCCN4C[C@H](F)C5)nc13)N1CCC[C@H](C1)Cn1cc(nn1)CCc1c(Cl)cc3[nH]ncc3c1-2` [Example 146], for which the results for the IC50 in experiment [1] and in experiment [2] were 77 nM and 65 nM, respectively.

Turning to `Fc1c2ncc3c(nc(OC[C@@]45CCCN4C[C@H](F)C5)nc13)N1CCO[C@@H](COCCOCc3c(Cl)cc4[nH]ncc4c3-2)C1` [Example 152, (17R)-9-chloro-30-fluoro-24-(((2R,7aS)-2-fluorotetrahydro-1H-pyrrolo[1,2-a]pyrrol-7a(5H)-yl)methoxy)-12,15,18-trioxa-5,6,21,23,25,29 hexaazahexacyclo[24.3.1.1~17,21~.0~2,10~.0~3,7~.0~22,27~]hentriaconta-1(30),2,4,7,9,22,24,26,28-nonaene], the IC50 amounted to 71 nM in experiment [1] and 56 nM in experiment [2].

Regarding `O=C1CCCCc2c(Cl)cccc2-c2ncc3c(nc(OC[C@@]45CCCN4C[C@H](F)C5)nc3c2F)N2CC[C@@H]3CCN1[C@@H]3C2` [Example 163, (25R,29S)-15-chloro-30-fluoro-4-(((2R,7aS)-2-fluorotetrahydro-1H-pyrrolo[1,2-a]pyrrol-7a(5H)-yl)methoxy)-1,3,5,9,22-pentaazahexacyclo[20.5.2.1~6,10~.0~2,7~.0~11,16~.0~25,29~]triaconta-2,4,6,8,10(30),11,13,15-octaen-21-one], the IC50 turned out to be 2840 nM in experiment [1] and 1570 nM in experiment [2].

On to `C[C@]12CCCCN(C1)c1nc(OC[C@@]34CCCN3C[C@H](F)C4)nc3c(F)c(ncc13)-c1c(c(Cl)cc3[nH]ncc13)CCCCC(=O)N2` [Example 165, (26S)-18-chloro-32-fluoro-4-(((2R,7aS)-2-fluorotetrahydro-1H-pyrrolo[1,2-a]pyrrol-7a(5H)-yl)methoxy)-26-methyl-1,3,5,9,14,15,25-heptaazahexacyclo[24.4.1.1~6,10~.0~2,7~.0~11,19~.0~12,16~]dotriaconta-2,4,6,8,10(32),11,13,16,18-nonaen-24-one], for which the IC50 amounted to 12700 nM in experiment [1] and 4430 nM in experiment [2].

In the case of `O=C1CCCCc2c(Cl)cc3[nH]ncc3c2-c2ncc3c(nc(OC[C@@]45CCCN4C[C@H](F)C5)nc3c2F)N2C[C@H]3CN1[C@H]3C2` [Example 169, (18S,19R)-9-chloro-30-fluoro-24-(((2R,7aS)-2-fluorotetrahydro-1H-pyrrolo[1,2-a]pyrrol-7a(5H)-yl)methoxy)-5,6,16,21,23,25,29-heptaazaheptacyclo[24.3.1.1~18,21~.0~2,10~.0~3,7~.0~16,19~.0~22,27~]hentriaconta-1(30),2,4,7,9,22,24,26,28-nonaen-15-one], the values for the 50% inhibitory concentration (IC50) in experiment [1] and in experiment [2] were 616 nM and 339 nM, respectively.

Consider `Cc1cc2[nH]ncc2c2c1CCCCC(=O)N[C@@H]1CN(C[C@@H]3C[C@@H]31)c1nc(OC[C@@]34CCCN3C[C@H](F)C4)nc3c(F)c-2ncc13` [Example 170, (26S,27S,29R)-32-fluoro-4-(((2R,7aS)-2-fluorotetrahydro-1H-pyrrolo[1,2-a]pyrrol-7a(5H)-yl)methoxy)-18-methyl-1,3,5,9,14,15,25-heptaazaheptacyclo[24.4.1.1~6,10~.0~2,7~.0~11,19~.0~12,16~.0~27,29~]dotriaconta-2,4,6,8,10(32),11,13,16,18-nonaen-24-one], for which the values for the half-maximal inhibitory concentration (IC50) in experiment [1] and in experiment [2] were 2490 nM and 1540 nM, respectively.

For the compound `O=C1N[C@@H]2CN(C[C@@H]3C[C@@H]32)c2nc(OC[C@@]34CCCN3C[C@H](F)C4)nc3c(F)c(ncc23)-c2c(c(Cl)cc3[nH]ncc23)CCC[C@H]1F` [Example 172, (23R,26S,27S,29R)-18-chloro-23,32-difluoro-4-(((2R,7aS)-2-fluorotetrahydro-1H-pyrrolo[1,2-a]pyrrol-7a(5H)-yl)methoxy)-1,3,5,9,14,15,25-heptaazaheptacyclo[24.4.1.1~6,10~.0~2,7~.0~11,19~.0~12,16~.0~27,29~]dotriaconta-2,4,6,8,10(32),11,13,16,18-nonaen-24-one], the values for the IC50 in experiment [1] and in experiment [2] were 1770 nM and 1030 nM, respectively.

Turning to `O=C1N[C@H]2CN(C[C@H]3C[C@H]32)c2nc(OC[C@@]34CCCN3C[C@H](F)C4)nc3c(F)c(ncc23)-c2c(c(Cl)cc3[nH]ncc23)CCC[C@H]1F` [Example 173, (23R,26R,27R,29S)-18-chloro-23,32-difluoro-4-(((2R,7aS)-2-fluorotetrahydro-1H-pyrrolo[1,2-a]pyrrol-7a(5H)-yl)methoxy)-1,3,5,9,14,15,25-heptaazaheptacyclo[24.4.1.1~6,10~.0~2,7~.0~11,19~.0~12,16~.0~27,29~]dotriaconta-2,4,6,8,10(32),11,13,16,18-nonaen-24-one], the IC50 in experiment [1] is 1570 nM; in experiment [2], 1110 nM.

For the compound `O=C1OCCCc2c(Cl)cc3[nH]ncc3c2-c2ncc3c(nc(OC[C@@]45CCCN4C[C@H](F)C5)nc3c2F)N2CC[C@@H]3CCN1[C@@H]3C2` [Example 176, (28R,32S)-18-chloro-33-fluoro-4-(((2R,7aS)-2-fluorotetrahydro-1H-pyrrolo[1,2-a]pyrrol-7a(5H)-yl)methoxy)-23-oxa-1,3,5,9,14,15,25-heptaazaheptacyclo[23.5.2.1~6,10~.0~2,7~.0~11,19~.0~12,16~.0~28,32~]tritriaconta-2,4,6,8,10(33),11,13,16,18-nonaen-24-one], the IC50 in experiment [1] was 287 nM; in experiment [2], 179 nM.

For the compound `CN1C(=O)OCCCc2c(Cl)cc3[nH]ncc3c2-c2ncc3c(nc(OC[C@@]45CCCN4C[C@H](F)C5)nc3c2F)N2CCOC[C@@H]1C2` [Example 178, (26S)-18-chloro-32-fluoro-4-(((2R,7aS)-2-fluorotetrahydro-1H-pyrrolo[1,2-a]pyrrol-7a(5H)-yl)methoxy)-25-methyl-23,28-dioxa-1,3,5,9,14,15,25-heptaazahexacyclo[24.4.1.1~6,10~.0~2,7~.0~11,19~.0~12,16~]dotriaconta-2,4,6,8,10(32),11,13,16,18-nonaen-24-one], the IC50 in experiment [1] was determined as 79 nM; in experiment [2], 44 nM.

For the compound `CN1CCC[C@H]1COc1nc2c3cnc(c(F)c3n1)-c1c(c(Cl)cc3[nH]ncc13)CCCOC(=O)O[C@@]1(C)COCCN2C1` [Example 180, (26R)-18-chloro-32-fluoro-26-methyl-4-(((2S)-1-methyl-2-pyrrolidinyl)methoxy)-23,25,28-trioxa-1,3,5,9,14,15-hexaazahexacyclo[24.4.1.1~6,10~.0~2,7~.0~11,19~.0~12,16~]dotriaconta-2,4,6,8,10(32),11,13,16,18-nonaen-24-one], the results for the IC50 in experiment [1] and in experiment [2] were 1510 nM and 689 nM, respectively.

Regarding `Cc1cc2[nH]ncc2c2c1CCCOC(=O)O[C@@]1(C)COCCN(C1)c1nc(OC[C@@H]3CCCN3C)nc3c(F)c-2ncc13` [Example 182, (26R)-32-fluoro-18,26-dimethyl-4-(((2S)-1-methyl-2-pyrrolidinyl)methoxy)-23,25,28-trioxa-1,3,5,9,14,15-hexaazahexacyclo[24.4.1.1~6,10~.0~2,7~.0~11,19~.0~12,16~]dotriaconta-2,4,6,8,10(32),11,13,16,18-nonaen-24-one], the results for the IC50 in experiment [1] and in experiment [2] were 7570 nM and 3620 nM, respectively.

Regarding `O=C1OCCCc2c(Cl)cc3[nH]ncc3c2-c2c(F)cc3c(nc(OC[C@@]45CCCN4C[C@H](F)C5)nc3c2F)N2CCOC[C@H](C2)O1` [Example 188, m-(26S)-18-chloro-9,32-difluoro-4-(((2R,7aS)-2-fluorotetrahydro-1H-pyrrolo[1,2-a]pyrrol-7a(5H)-yl)methoxy)-23,25,28-trioxa-1,3,5,14,15-pentaazahexacyclo[24.4.1.1~6,10~.0~2,7~.0~11,19~.0~12,16~]dotriaconta-2,4,6,8,10(32),11,13,16,18-nonaen-24-one], the IC50 in experiment [1] was 71 nM; in experiment [2], 44 nM.

As for `O=C1OCCCc2c(Cl)cc3[nH]ncc3c2-c2ncc3c(nc(O[C@H]4CCOC4)nc3c2F)N2CCOC[C@H](C2)O1` [Example 196, (26S)-18-chloro-32-fluoro-4-((3S)-tetrahydro-3-furanyloxy)-23,25,28-trioxa-1,3,5,9,14,15-hexaazahexacyclo[24.4.1.1~6,10~.0~2,7~.0~11,19~.0~12,16~]dotriaconta-2,4,6,8,10(32),11,13,16,18-nonaen-24-one], the figures for the IC50 in experiment [1] and in experiment [2] were 167 nM and 214 nM, respectively.

Take `O=C1OCCCc2c(Cl)cc3[nH]ncc3c2-c2ncc3c(nc(O[C@@H]4CCOC4)nc3c2F)N2CCOC[C@H](C2)O1` [Example 197, (26S)-18-chloro-32-fluoro-4-((3R)-tetrahydro-3-furanyloxy)-23,25,28-trioxa-1,3,5,9,14,15-hexaazahexacyclo[24.4.1.1~6,10~.0~2,7~.0~11,19~.0~12,16~]dotriaconta-2,4,6,8,10(32),11,13,16,18-nonaen-24-one]: the IC50 in experiment [1] amounted to 90 nM; in experiment [2], 105 nM.
